# In publication PMC7708037, “Targeting OGG1 arrests cancer cell proliferation by inducing replication stress” (Nucleic Acids Research, 2020):
# Assays:
# [1] = tested on: γH2AX in A3 cells; assay: Phosphorylated γH2AX (immunofluorescence / flow cytometry); assay type: cell-based, human; conditions: 10 μM
# Method: A3 cells were seeded in a 96-well plate 24 h prior to start of the experiment. Cells were then treated with 10 μM TH5487, for 24, 48 and 72 h, respectively or with 2 mM hydroxyurea for 1 h. Final DMSO concentration was 0.2%. After the treatment, cells were transferred to an imaging plate (black Falcon 96-well plate) pre-coated with 0.1% poly L-lysine (Sigma). Cells were allowed to attach for 15 minutes and were then fixed with 4% paraformaldehyde. The plate was washed with 0.05% Tween 20 in PBS, cells were permeabilized with 0.5% Triton-X100 in PBS and blocked with 2% bovine serum albumin in PBS. […] Data from three independent experiments were pooled and analyzed for statistical significance by one-way analysis of variance.
# At the indicated time points, compound/dox treated cells were incubated in medium containing 10 μM 5-ethynyl-2′-deoxyuridine (EdU) (Thermo Fisher, A10044) for 20 min. […] Data was analyzed using Kaluza® Flow Analysis Software (Beckman Coulter).
# Figure 5. […] A3 cells were treated with 20 mM KBrO3 for 1 h or with 10 μM TH5487 for the indicated times, and the amount of genomic 8-oxodG was quantified with LC-MS/MS. […] A3 cells were treated with 10 μM TH5487 for 72 h and strand-breaks and OGG1 substrate lesions were analyzed with the OGG1-modified Comet assay. […] At least 33 000 nuclei per group were quantified from three independent experiments. […]
# [2] = tested on: A3 cells; assay: Cell cycle distribution by flow cytometry; assay type: cell-based, human; conditions: 10 μM
# Method: At the indicated time points, compound/dox treated cells were incubated in medium containing 10 μM 5-ethynyl-2′-deoxyuridine (EdU) (Thermo Fisher, A10044) for 20 min. Next, cells were fixed in cold 70% ethanol overnight. The azide alkyne Huisgen cycloaddition (‘Click reaction’) was carried out according to the Click-iT EdU Imaging Manual (Thermo Fisher) using various fluorescent dyes: Alexa Fluor® 488 azide (Thermo Fisher, A10266), Alexa Fluor® 647 azide (Thermo Fisher, A10277), or TAMRA azide (Thermo Fisher, T10182), depending on assay conditions. […] Data was analyzed using Kaluza® Flow Analysis Software (Beckman Coulter). […]
# untreated parental HEK293T. […] Statistical significance was determined using Mann Witney test (**, P<0.01, ***, P<0.001 and ****, P<0.0001 , ns, non-significant).
# Supplementary Fig. S6: 8 -oxodG levels and cell cycle distribution. […] The indicated shNT cells were treated with 250 ng/ml doxycycline for 0, 96, or 144 h, and the amount of genomic 8-oxodG was quantified with LC -MS/MS. […] Cells were treated with 10 µM TH5487 or an equivalent volume DMSO for the indicated times, and the cell cycle distribution was determined by flow cytometry. […] A3 shNT (grey), sh2 (blue), and sh3 (red), were treated with 250 ng/ml doxycycline for 48 –120 h, and the cell cycle distribution was determined with flow cytometry. […]
smiles,measurement,setting,value
O=C(Nc1ccc(I)cc1)N1CCC(n2c(=O)[nH]c3c(Br)cccc32)CC1 [TH5487],Cell cycle distribution of γH2AX positive cells,[1]; 72 h,confined to S-phase cells
same,Phosphorylated γH2AX,[1]; after 24 h,significant increase
same,Cell cycle distribution,[2],remained largely constant
same,Sub-G1 population,[2],accumulation in the sub-G1 population
